Laboratory results as given in patent US9150982B2, “Crystal form of (6S)-5-methyltetrahydrofolate salt and method for preparing same” (LIANYUNGANG JINKANG HEXIN PHARMACEUTICAL CO. LTD., priority 2012, dated 2015).
Like-named read-outs stand apart in the source and are kept apart here.

Conditions: in the air, 40° C., relative humidity 60%
Experimental: In order to determine the stability of the novel crystal form of the Form C of (6S)-5-MTHF calcium salt, the crystal form was placed in the air at a temperature of 40° C. and a relative humidity of 60%, and the content of remained (6S)-5-MTHF calcium salt was periodically measured.

(6S)-5-methyltetrahydrofolate calcium salt [Form C]
Stability (overall result in words) (up to 9 days): good stability | Appearance (storage 0 days): White crystal | Content of remained (6S)-5-MTHF calcium salt (storage 0 days): 99.5% | Appearance (storage 3 days): White crystal | Content of remained (6S)-5-MTHF calcium salt (storage 3 days): 99.1% | Appearance (storage 6 days): White crystal | Content of remained (6S)-5-MTHF calcium salt (storage 6 days): 99.1% | Appearance (storage 9 days): White crystal | Content of remained (6S)-5-MTHF calcium salt (storage 9 days): 98.4%
